From US20190151289A1, “Identification of Small Molecule Inhibitors of Jumonji AT-Rich Interactive Domain 1A (JARID1A) Histone Demethylase” (YALE UNIVERSITY, priority 2016, published 2019)
Like-named read-outs stand apart in the source and are kept apart here.

Tests used:
[1] = target: T1, full-length FLAG-KDM5A (Homo sapiens, UniProt P29375); test: AlphaScreen KDM5A demethylation assay (bio-H3K4me3 peptide); type: biochemical
T1 construct: Sf21 insect cells were infected with baculovirus to express full-length FLAG-KDM5A; made in house; host or cells: Sf21 insect cells (baculovirus)
T1 sequence (P29375 whole entry): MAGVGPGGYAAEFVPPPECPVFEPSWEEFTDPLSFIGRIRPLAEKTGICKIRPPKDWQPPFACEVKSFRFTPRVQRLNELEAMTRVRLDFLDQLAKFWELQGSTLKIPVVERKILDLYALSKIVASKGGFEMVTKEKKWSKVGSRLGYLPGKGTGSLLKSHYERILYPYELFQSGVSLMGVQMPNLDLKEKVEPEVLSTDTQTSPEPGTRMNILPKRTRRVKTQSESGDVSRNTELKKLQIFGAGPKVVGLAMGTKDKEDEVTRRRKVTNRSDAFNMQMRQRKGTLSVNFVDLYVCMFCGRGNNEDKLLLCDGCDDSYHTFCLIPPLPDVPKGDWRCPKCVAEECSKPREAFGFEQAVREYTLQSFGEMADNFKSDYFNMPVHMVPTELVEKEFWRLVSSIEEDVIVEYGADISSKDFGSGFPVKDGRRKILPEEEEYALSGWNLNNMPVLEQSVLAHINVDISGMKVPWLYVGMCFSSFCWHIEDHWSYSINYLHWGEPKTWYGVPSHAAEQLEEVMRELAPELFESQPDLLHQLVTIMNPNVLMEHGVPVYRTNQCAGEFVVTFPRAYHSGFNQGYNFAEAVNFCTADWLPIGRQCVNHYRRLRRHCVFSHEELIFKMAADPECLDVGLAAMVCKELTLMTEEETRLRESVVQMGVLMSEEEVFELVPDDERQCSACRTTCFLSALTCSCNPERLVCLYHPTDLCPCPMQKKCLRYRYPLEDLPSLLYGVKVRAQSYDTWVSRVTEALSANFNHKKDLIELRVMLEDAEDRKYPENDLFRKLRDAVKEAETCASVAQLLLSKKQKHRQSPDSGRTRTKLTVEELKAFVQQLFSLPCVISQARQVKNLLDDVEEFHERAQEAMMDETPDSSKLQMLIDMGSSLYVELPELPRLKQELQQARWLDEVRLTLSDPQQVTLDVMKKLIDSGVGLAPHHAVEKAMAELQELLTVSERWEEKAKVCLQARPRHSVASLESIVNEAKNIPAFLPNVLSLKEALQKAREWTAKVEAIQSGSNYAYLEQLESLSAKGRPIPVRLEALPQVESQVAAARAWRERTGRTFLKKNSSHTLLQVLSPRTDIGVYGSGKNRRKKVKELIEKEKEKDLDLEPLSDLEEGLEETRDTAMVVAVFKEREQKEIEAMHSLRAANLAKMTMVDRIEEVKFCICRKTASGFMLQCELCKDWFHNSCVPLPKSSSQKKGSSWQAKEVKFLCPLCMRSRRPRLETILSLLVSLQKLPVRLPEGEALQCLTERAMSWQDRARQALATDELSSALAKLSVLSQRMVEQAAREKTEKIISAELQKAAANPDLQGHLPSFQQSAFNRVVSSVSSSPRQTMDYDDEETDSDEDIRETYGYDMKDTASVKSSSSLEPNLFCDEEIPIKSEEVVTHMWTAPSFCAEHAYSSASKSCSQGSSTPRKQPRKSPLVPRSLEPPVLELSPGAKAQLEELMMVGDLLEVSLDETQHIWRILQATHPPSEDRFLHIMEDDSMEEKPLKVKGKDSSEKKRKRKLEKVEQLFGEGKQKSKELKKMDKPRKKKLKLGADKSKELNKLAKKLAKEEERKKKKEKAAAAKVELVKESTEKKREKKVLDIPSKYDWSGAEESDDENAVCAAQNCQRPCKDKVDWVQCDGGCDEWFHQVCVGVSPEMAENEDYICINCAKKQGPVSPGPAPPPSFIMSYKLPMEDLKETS
Procedure: (§1) Histone demethylase assays were performed using previously described methods (Sayegh et al., 2013, J. Biol. Chem. 9408-9417), with the exception of all enzyme reactions containing 125 μM α-KG. Enzymes were used at the following approximate concentrations in validation experiments, chosen based on their activity in AlphaScreen assays: 19 nM FLAG-KDM5A, 15 nM FLAG-KDM5B, 6 nM FLAG-KDM5C, 29 nM His-FLAG-KDM6A, and 16 nM FLAG-KDM6B. 24 nM FLAG-KDM5A was used for Km determination experiments. Reactions were carried out for 1 hour, or were stopped by addition of 30 mM EDTA every 5 minutes for determining enzyme kinetics. Km values were calculated using the Michaelis-Menten non-linear regression analysis on GraphPad Prism 6.0 software. The concentration of DMSO in demethylation reactions was 0.05%. For reactions with catalase, catalase (Sigma C30) or an equal volume of dilution buffer was added to the peptide-containing buffer before addition of the demethylase. The final concentration of catalase in the reactions was 0.01 mg/ml.
(§2) The AlphaScreen general IgG (protein A) detection kit from PerkinElmer Life Sciences was used as described previously (Sayegh et al., 2013, J. Biol. Chem. 9408-9417). The luminescence emission was recorded at 570 nm using the AlphaScreen optic module on a Pherastar (BMG Labtech) or Envision (PerkinElmer Life Sciences) microplate reader.
8,861 compounds from the ChemBridge MW-Set, ChemBridge DIVERSet, MicroSource Gen-Plus, MicroSource Pure Natural Products, NIH Clinical Collection, and Enzo Epigenetics libraries were screened for inhibition of FLAG-KDM5A demethylase activity. Compounds were dissolved in DMSO and added at 20 μM to 384-well white plates (Corning 3574) containing 64 nM bio-H3K4me3 peptide in demethylase buffer prior to addition of 13 nM FLAG-KDM5A. Hits were selected at a threshold of three standard deviations (˜30% inhibition). A counter-screen was performed with the hits to eliminate any non-specific compounds. For this, 20 μM compounds were added to 64 nM bio-H3K4me2 peptide in demethylase buffer with no enzyme. Any hits that interfered with the positive signal detection were eliminated. Dose-response curves were performed on selected hits using 0.1-11 μM of compound. Further validation of top hits was performed using 5 μM of each compound or a dose-response curve using 0.05-50 μM of the compound.
Fresh compounds were ordered to confirm identity. IC50 curves were generated for YUKA1 and YUKA2 using 0.05-50 μM compound in 1 hour reactions. IC50 values were calculated by log transformation and non-linear regression log (inhibitor) versus response (three parameters) using Graphpad Prism 6.0 software. Percent activity of KDM5A was calculated for each data point by subtracting the background (average H3K4me3 signal) and dividing by the average signal for the DMSO controls. α-KG competition tests were performed using 150 nM H3K4me3 peptide and 50 μM Fe(II).
AlphaScreen technology (Perkin Elmer) was utilized to perform a screen for small molecule inhibitors of KDM5A. The assay was comprised of two steps, a demethylation reaction followed by detection of the product. A biotinylated H3K4me3 peptide was used as substrate in the demethylation reaction with KDM5A in the presence or absence of small molecule inhibitors. The presence of peptide product (H3K4me1/2) was detected using a product-specific antibody and beads. For this, acceptor beads coated in protein A bound to the antibody, which recognized the peptide product. Donor beads coated in streptavidin bound biotin on the peptide substrate. […]

[2] = target: T2, KDM5C (Homo sapiens, UniProt P41229); test: AlphaScreen KDM5C demethylation assay; type: biochemical
T2 construct: FLAG; made in house
T2 sequence (P41229 whole entry): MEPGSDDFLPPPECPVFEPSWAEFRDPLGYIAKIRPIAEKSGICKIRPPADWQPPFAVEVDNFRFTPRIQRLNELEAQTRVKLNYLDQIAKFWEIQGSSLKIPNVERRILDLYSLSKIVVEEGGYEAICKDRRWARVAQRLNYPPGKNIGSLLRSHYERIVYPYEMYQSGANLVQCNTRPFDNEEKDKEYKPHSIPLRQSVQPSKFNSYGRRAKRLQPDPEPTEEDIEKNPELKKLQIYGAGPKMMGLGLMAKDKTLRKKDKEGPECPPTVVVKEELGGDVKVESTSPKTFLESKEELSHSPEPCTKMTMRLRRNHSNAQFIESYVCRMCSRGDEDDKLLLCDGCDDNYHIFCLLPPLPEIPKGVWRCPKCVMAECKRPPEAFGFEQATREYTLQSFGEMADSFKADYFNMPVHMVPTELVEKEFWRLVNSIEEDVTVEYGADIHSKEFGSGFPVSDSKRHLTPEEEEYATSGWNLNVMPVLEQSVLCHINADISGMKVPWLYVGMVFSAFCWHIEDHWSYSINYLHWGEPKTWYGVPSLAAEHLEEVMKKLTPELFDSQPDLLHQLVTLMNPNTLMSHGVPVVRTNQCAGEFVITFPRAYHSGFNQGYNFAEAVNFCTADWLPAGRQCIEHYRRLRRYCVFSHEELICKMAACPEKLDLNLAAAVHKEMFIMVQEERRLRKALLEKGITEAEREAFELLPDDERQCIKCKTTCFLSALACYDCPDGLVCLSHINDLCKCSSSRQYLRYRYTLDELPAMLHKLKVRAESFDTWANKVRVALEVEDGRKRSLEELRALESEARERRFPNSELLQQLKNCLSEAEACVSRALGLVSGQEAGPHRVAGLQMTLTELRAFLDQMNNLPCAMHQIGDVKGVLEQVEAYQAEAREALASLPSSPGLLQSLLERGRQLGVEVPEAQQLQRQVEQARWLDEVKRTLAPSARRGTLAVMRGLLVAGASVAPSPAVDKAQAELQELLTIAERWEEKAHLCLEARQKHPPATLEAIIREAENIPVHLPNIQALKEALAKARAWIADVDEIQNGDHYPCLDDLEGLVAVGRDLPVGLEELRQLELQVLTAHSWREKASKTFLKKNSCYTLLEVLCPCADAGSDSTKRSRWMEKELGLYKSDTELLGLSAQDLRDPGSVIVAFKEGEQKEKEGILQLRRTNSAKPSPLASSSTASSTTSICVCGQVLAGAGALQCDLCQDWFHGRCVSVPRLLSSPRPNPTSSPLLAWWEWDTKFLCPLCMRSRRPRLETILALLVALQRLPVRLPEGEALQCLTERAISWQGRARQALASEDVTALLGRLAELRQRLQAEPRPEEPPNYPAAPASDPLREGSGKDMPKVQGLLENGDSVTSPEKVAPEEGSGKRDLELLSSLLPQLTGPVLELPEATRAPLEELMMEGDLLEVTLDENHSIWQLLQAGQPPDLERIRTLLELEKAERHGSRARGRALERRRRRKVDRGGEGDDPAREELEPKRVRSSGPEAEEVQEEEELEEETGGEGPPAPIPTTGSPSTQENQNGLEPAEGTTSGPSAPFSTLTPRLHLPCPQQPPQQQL
Procedure: as §1, §2

[3] = tested on: HeLa cells; test: WST-1 cell proliferation assay, HeLa; type: cell-based, human; details: after 3 days
Procedure: (§3) WST-1 reagent from Roche Applied Sciences (11644807001) was used to measure cell number before drug addition and after 3 or 5 days of growth using previously described methods (Sayegh et al., 2013, J. Biol. Chem. 9408-9417). Cells were seeded in 96-well plates at the following number of cells per well: HeLa (2000), MCF7 (2000), ZR-75-1 (1000), MCF10A (1000), MDA-MB-231(5000). Assays were performed in technical quadruplicates and biological triplicates. DMSO was used at 0.1%. Relative absorbance was calculated by subtracting the average background (media only) signal, dividing by the average signal on day 0, and then dividing by the average day 5/day 0 ratio for the DMSO controls. Significance was calculated by unpaired, two-tailed student's t-test using GraphPad Prism 6.0 software.

[4] = tested on: ZR-75-1 cells; test: WST-1 cell proliferation assay, ZR-75-1; type: cell-based, human; details: ZR-75-1, 5 days of treatment
Procedure: as §3

[5] = tested on: MCF10A cells; test: WST-1 cell proliferation assay, MCF10A; type: cell-based, human; details: 5 days of treatment
Procedure: as §3

[6] = tested on: BT474 cells; test: Colony formation assay, BT474 (trastuzumab tolerance); type: cell-based, human
Procedure: (§4) Cells were seeded in 6-well plates at low density: HeLa, MCF7, BT474, and PC9 cells at 1000, 2000, 2500, and 2000 cells/well respectively. Media containing the prescribed drugs or 0.1% DMSO was replaced every 3 days. Trastuzumab was used at 5 μg/ml. Gefitinib was used at 2 μM. YUKA1 was used at 50 or 100 μM. Doxycycline was used at 1 μg/ml for 3 days. After 7-42 days depending on the rate of cell growth, cells were fixed in 4% para-formaldehyde in phosphate-buffered saline for 10 minutes rocking at room temperature. They were incubated in 0.05% crystal violet in double-distilled water for 30 minutes rocking at room temperature, washed with water, and dried 24 hours before photographing. ColonyArea, a plugin for ImageJ software, was used for quantification (Guzman et al., 2014, PloS One 9:e92444). Unpaired, two-tailed student's t-test was used to determine significance using GraphPad Prism 6.0 software.

[7] = tested on: MDA-MB231 cells; test: Colony formation assay, MDA-MB231; type: cell-based, human; details: 5 μM KDMS-C70 or 50 or 100 μM YUKA1
Procedure: as §4
HeLa (FIG. 11A) and MDA-MB231 cells (FIG. 11B) were treated with DMSO, 5 μM KDMS-C70 or 50 or 100 μM YUKA1 in colony-formation assays. The tables in FIGS. 11C and 11D depict the quantification of experimental data.

mode of KDM5A inhibition with respect to Fe(II) [1]: uncompetitive with respect to Fe(II)
KDM5A enzyme inhibition at low Fe(II) ([1]; 5 μM Fe(II)): too weak to generate robust IC50 curves
effect of catalase on inhibitory potency against KDM5A ([1]; 0.01 mg/ml catalase): did not affect the inhibitory potency
IC50 ([1]; 0.05-50 μM compound, 1 hour reactions, read-out: average in vitro IC50 against KDM5A): 2.66 µM
change of KDM5A IC50 with α-KG concentration ([1]; 16-fold range of α-KG, 150 nM H3K4me3 peptide, 50 μM Fe(II)): did not change significantly
IC50 ([1]; inhibitors found by high throughput screening, read-out: KDM5A IC50): 1.32 µM
fold less active against KDM5C (vs KDM5A) [2]: ~3 fold
Compound: C=CCOc1c(CNn2cnnc2S)cccc1OC [YUKA1, 4-([2-(allyloxy)-3-methoxybenzyl]amino)-4H-1,2,4-triazole-3-thiol]
cell proliferation relative to DMSO [3]: less than half of DMSO-treated cells
cell proliferation [4]: decreased cell proliferation during 5 days of treatment in a dose-dependent manner
cell proliferation [5]: did not hinder cell proliferation
cell growth, compound alone ([6]; BT474, compound alone): not changed
emergence of colonies under trastuzumab ([6]; BT474, trastuzumab 5 μg/ml plus compound): significantly less
growth in colony-formation assay [7]: suppresses growth
